The target of one series is T1, rat B2R (Rattus norvegicus, UniProt P25023).
T1 sequence (P25023 1-396): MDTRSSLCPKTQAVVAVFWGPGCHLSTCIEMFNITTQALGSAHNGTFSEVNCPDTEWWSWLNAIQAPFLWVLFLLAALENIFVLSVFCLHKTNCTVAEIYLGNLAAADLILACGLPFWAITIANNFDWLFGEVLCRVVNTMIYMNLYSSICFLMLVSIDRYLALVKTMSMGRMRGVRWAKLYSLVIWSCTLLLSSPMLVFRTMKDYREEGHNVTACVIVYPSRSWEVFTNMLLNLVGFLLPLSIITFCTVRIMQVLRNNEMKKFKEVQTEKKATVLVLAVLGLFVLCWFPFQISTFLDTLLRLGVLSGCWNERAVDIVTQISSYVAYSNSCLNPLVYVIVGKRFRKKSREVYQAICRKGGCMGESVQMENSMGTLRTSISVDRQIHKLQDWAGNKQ
Details: expressed in transfected cells; host or cells: Cos-7 cells. Conditions: Cos-7 cells expressing the rat receptor, n=3; read-out: KI, displacement of [3H]-BK binding; cited from earlier work.

For a further series, the target named is T2, human B1 BK receptor (Homo sapiens, UniProt P46663).
T2 sequence (P46663 1-353): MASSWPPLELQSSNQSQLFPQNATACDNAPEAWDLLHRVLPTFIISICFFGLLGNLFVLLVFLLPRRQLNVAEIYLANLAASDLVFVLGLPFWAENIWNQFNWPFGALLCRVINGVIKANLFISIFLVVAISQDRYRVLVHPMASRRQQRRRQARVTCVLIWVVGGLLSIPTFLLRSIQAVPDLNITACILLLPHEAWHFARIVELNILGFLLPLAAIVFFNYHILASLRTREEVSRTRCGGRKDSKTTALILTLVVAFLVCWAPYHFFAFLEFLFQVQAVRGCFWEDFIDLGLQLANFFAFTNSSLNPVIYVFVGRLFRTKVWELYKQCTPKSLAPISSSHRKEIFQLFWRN
Conditions: cited from earlier work.

The target of a further series is B2R. Conditions: NG108-15 cells, n=3; read-out: KI, displacement of [3H]-BK binding; cited from earlier work. (In general: Displacement assays read how much labelled ligand stays bound in the presence of the test substance.)
The conditions of series [1]: in vivo; cited from earlier work.
Another series concerns D54-MG-GFP glioma cells. Put plainly: Transwell migration assay. The format is cell-based, human. The note with it: antagonist 1 μM with BK, 5 h. Here is the method:
The day before the experiment was performed, ˜70% confluent dishes of cells were prepared. Transwell migration Fluoroblock cell culture inserts (BD Biosciences, San Jose, Calif.) with 8 μm pores were coated overnight with Vitronectin (BD Biosciences, San Jose, Calif.) at a concentration of 5 μg/ml in PBS. The following day, inserts were blocked with 1% fatty acid-free bovine serum albumin for 1 h. Inserts were then washed two times in PBS, and 400 μl of Migration Assay Buffer (MAB, 0.1% fatty acid-free bovine serum albumin in serum-free media) was added to the bottom of each well. Cells were rinsed once in PBS and were lifted off the dish by the addition of 0.5 mm EGTA. Cells were rinsed twice by centrifugation and resuspended in MAB and counted. Forty thousand cells were plated on the top of each filter and allowed to adhere for 30 min before drug was added. When BK+/−antagonists was added to the filters, it was added only to the bottom of the filter for chemotaxis. For migration assay, D54-EGFP MG cells were allowed to migrate for 5 hours, washed with PBS, fixed with 4% paraformaldehyde 15 minutes at room temperature, washed thrice and counterstained with DAPI for 5 minutes at room temperature. Invasion assay was performed similarly. Matrigel cell cultured inserts (BD Biosciences, San Jose, Calif.) with 8 μm pores were pretreated Vitronectin and blocked as described above. […] The number of nuclei that migrated through pores was counted. All counts per treatment were averaged and SE values were calculated. […]
To investigate the hypothesis that BK promotes glioma migration in vitro, we used Transwell migration assay which conveniently permit examination of cell migration across a membrane barrier with 8 μm pores towards vitronectin, a chemo-attractant extracellular matrix protein. This frequently used assay allows a quantitative study of drug effects with regards to drugs acting as motogens or as chemo-attractants. […]

One may read the Ki as the equilibrium dissociation constant of an inhibitor or competing ligand from its target. Turning to `CN(C)CCN(C)CCNC(=O)[C@@H]1CCCN1S(=O)(=O)c1ccc(NNC(=S)NC(c2ccccc2)c2ccccc2)c([N+](=O)[O-])c1` [Bradyzide], the inhibition constant (Ki) on rat B2R was 0.89 nM; on B2R, 0.51 nM. Moreover, the “interaction with human B1 BK receptor” value on human B1 BK receptor is on record as “does not interact”. In series [1], the oral availability result is on record as “orally available”. In addition, the “BK-induced increase in cells migrating through the pores” value in the series on D54-MG-GFP glioma cells is recorded as “eliminated”.

`N=C(N)NCCCC(NC(=O)[C@H](N)CCCNC(=N)N)C(=O)N1CCC[C@H]1C(=O)N1C[C@H](O)C[C@H]1C(=O)NCC(=O)N[C@@H](Cc1cccs1)C(=O)N[C@@H](CO)C(=O)N1Cc2ccccc2C[C@@H]1C(=O)N1C2CCCCC2C[C@H]1C(=O)N[C@H](CCCNC(=N)N)C(=O)O` (stereo partly drawn) [HOE-140, D-Arg-[Hyp^3, Thi^5, D-Tic^7, Oic^8]bradykinin]: the “BK-induced increase in cells migrating through the pores” value in the series on D54-MG-GFP glioma cells is recorded as “eliminated”.

Source of the values: US20140248291A1, “Modulation of Cellular Migration” (THE UAB RESEARCH FOUNDATION, priority 2011, published 2014).
